In US10927097B2, “Indole compound as inhibitor of necrosis” (LG CHEM, LTD., priority 2013, dated 2021) one finds EC50 data, which are given here for twelve molecules.

In the experiment the test system is primary hepatocytes isolated from rats. In words: Hepatocyte protective effect against doxorubicin treatment (cell viability, WST-1). It counts as cell-based. The following applies: primary rat hepatocytes pretreated with compound for 30 min, viability by WST-1 after 24-48 hours. On the procedure: Various endogenous/exogenous attacks on cells trigger the mechanisms of cell death which is broadly classified into two types—i.e., apoptosis or necrosis. Using these cell death mechanisms, in the present experimental example, primary hepatocytes isolated from rats were treated with drugs which were clinically shown to result in serious side-effects of hepatocyte toxicity or various chemicals which derive cell death, and the compounds synthesized in the Examples were estimated for their hepatocyte protective effects, after 24-48 hours. The substances used to cause hepatocyte death include CCl4, ActD, H2O2, doxorubicin, anti-Fas Ab/Actinomycin D, acetaminophen, EtOH, CdCl2, palmitate, stearate, cyclophosphamide, terfenadine, diclofenac, simvastatin, and adefovir. Primary hepatocytes were isolated using the method of Seglen P O (Experimental Cell Research 74 (1972), pp. 450-454). Briefly, hepatocytes were isolated according to the two-step collagenase perfusion method, and dead cells were removed by low speed (500 rpm) centrifugation for 10 min using percoll gradient (Kreamer B L et al., In Vitro Cellular & Developmental Biology 22 (1986), pp. 201-211). During this step, the viability of cells was maintained 90% or above. The cells were suspended in HepatoZYME media (Gibco BRL), and the number of cells was counted. 1.5×10^4 cells in 100 μl were placed into the collagen-coated 96-well plate (BD Biocoat), and adhered on the bottom for 3-4 hours.
In order to assess the hepatocyte protective effect, the above adhered cells were pretreated with the Example compounds for 30 min. At this time, the concentration of the Example compounds was serially diluted by 2-fold or 3-fold over 5 steps starting from 30 μM, 10 μM or 1 μM depending on the experiments, and the final concentration of DMSO was adjusted to 0.2%. 30 min after the treatment by the compounds, the cells were treated by the substances causing hepatocyte death or hepatotoxic drugs at the concentrations indicated in Table 1. After 24-48 hours, the viability of cells was determined to estimate the hepatocyte protective effect. The viability of cells was determined using the WST-1 (MK-400, Takeda) method by the absorbance at 440 nm. Hepatocyte protective effects of the Example compounds were represented by “EC50” which was calculated from measured values. “EC50” herein means the concentration of the compound at which 50% of maximum protective effect is observed in the experiment.

“1-(4-{5-Chloro-2-[2-(3-trifluoromethyl-5,6,7,8-tetrahydro-[1,2,4]triazolo[4,3-a]pyrazin-1-yl)-ethyl]-1H-indol-7-yl}-piperidin-1-yl)-ethanone [Example 13]”: the EC50 was found to be 1800 nM.
Turning to “4-[5-Methyl-7-(tetrahydropyran-4-ylmethylamino)-1H-indol-2-ylmethyl)-piperazin-2-one [Example 9]”, the EC50 was 250 nM.
As to `O=C1CN(Cc2cc3cc(Cl)cc(NC4CCCC4)c3[nH]2)CCN1` [Example 1, 4-(5-Chloro-7-cyclopentylamino-1H-indol-2-ylmethyl)-piperazin-2-one], the EC50 (Hepatocyte) was found to be 160 nM.
`CC(=O)N1CCC(Nc2cc(Cl)cc3cc(CCN4CCNC(=O)C4)[nH]c23)CC1` [Example 3, 4-{2-[7-(1-Acetyl-piperidin-4-ylamino)-5-chloro-1H-indol-2-yl]-ethyl}-piperazin-2-one]: the EC50 (Hepatocyte) came to 270 nM.
With `Cc1cc(NCC2CCOCC2)c2[nH]c(CN3CCS(=O)(=O)CC3)cc2c1` [Example 7, [2-(1,1-Dioxothiomorpholin-4-ylmethyl)-5-methyl-1H-indol-7-yl]-(tetrahydropyran-4-ylmethyl)-amine], where the note is “Hepatocyte”, the EC50 was found to be 440 nM.
Still for that read-out and setting: as for `Cc1cc(NC2CCCC2)c2[nH]c(CN3CCS(=O)(=O)CC3)cc2c1` [Example 8, Cyclopentyl-[2-(1,1-dioxothiomorpholin-4-ylmethyl)-5-methyl-1H-indol-7-yl]-amine], the figure is 240 nM.
Consider `CS(=O)(=O)N1CCC(Nc2cc(Cl)cc3cc(CCN4CCn5c(nnc5C(F)(F)F)C4)[nH]c23)CC1` [Example 12], for which the EC50 is 600 nM.
In the case of `O=C1CN(CCc2cc3cc(Cl)cc(NCc4ccccc4)c3[nH]2)CCN1` [Example 14, 4-[2-(7-Benzylamino-5-chloro-1H-indol-2-yl)-ethyl]-piperazin-2-one], where the note is “Hepatocyte”, the EC50 came out at 300 nM.
For the molecule `O=S1(=O)CCN(CCc2cc3cc(Cl)cc(NC4CCOCC4)c3[nH]2)CC1` [Example 18], the EC50 is 240 nM.
Turning to `O=S1(=O)CCN(CCc2cc3cc(Cl)cc(NC4CCCC4)c3[nH]2)CC1` [Example 19, {5-Chloro-2-[2-(1,1-dioxothiomorpholin-4-yl)-ethyl]-1H-indol-7-yl}-cyclopentyl-amine], the EC50 (Hepatocyte) turned out to be 270 nM.
Still for that read-out and setting: as for `O=C1CN(CCc2cc3cc(Cl)cc(NCC4CCOCC4)c3[nH]2)CCN1` [Example 22, 4-(2-{5-Chloro-7-[(tetrahydropyran-4-ylmethyl)-amino]-1H-indol-2-yl}-ethyl)-piperazin-2-one], the figure is 900 nM.
In the case of `Clc1cc(NC2CCCC2)c2[nH]c(C3CCNCC3)cc2c1` [Example 48, (5-Chloro-2-piperidin-4-yl-1H-indol-7-yl)-cyclopentyl-amine], where the note is “Hepatocyte”, the EC50 is 210 nM.
